“Also recorded” adds a separate entry of the source.
How the values were obtained:
[1] = system: RPA loading onto DNA/chromatin in A549 NSCLC cells; experiment: RPA32 western blot of total cell extracts and chromatin-bound fractions; format: cell-based; settings: A549 NSCLC cells, 0.1, 10, or 25 μM, 48 hours
Source text: Cells were harvested and protein from each group isolated into total cell extracts (TCE) or chromatin-bound fractions. Standard SDS-PAGE followed by western blot was used to separate proteins and probe for RPA32 presence in TCE and bound chromatin. Actin serves as a loading control. […] There is also some toxicity of Coumermycin A1 (Compound B).

human CMG helicase [2] = system: T1, human CMG helicase; experiment: radioactive DNA fork unwinding helicase assay; format: biochemical; settings: for inhibition of human CMG helicase in fork unwinding assay: in vitro, FIG. 2; for inhibition of CMG activity in fork unwinding assay: 0.5 mM, 30 minutes at 37 degrees Celsius, compared to Novobiocin
T1 construct: made in house; host or cells: insect cells (Sf9), baculoviruses
Source text: (§1) We have focused on the enzymatic ATP hydrolysis steps used by the core MCM hexamers of the CMG helicase to identify ATP competitive inhibitors of […] and/or hydrolysis within one or more of the MCM hexamer pairs. To do this, we established a means to express and purify the human CMG helicase in our lab, and then we verified the isolated CMG is active in DNA unwinding assays. We then set up a novel assay to quantitatively measure ATP hydrolysis (ADP production) by the human CMG. This assay used reagents that are sensitive enough to read small changes in ADP production from our functioning CMG helicase in an in vitro biochemical enzyme assay. This assay relies on reading fluorescent-polarization (FP) changes from an antibody that binds to an ADP-fluorophore molecule that is displaced when the CMG produces ADP on its own. The results are obtained using a Perkin-Elmer Envision II FP plate reader. This approach is referred to as our primary screening assay. Our secondary screening assay, which is lower through-put, uses a traditional radioactive-based DNA fork unwinding method of analysis to verify whether a given potential CMGi is truly capable of inhibiting CMG elongation along DNA and subsequent fork unwinding.
The human CMG helicase assay was performed with purified CMG before glycerol gradient centrifugation. Novobiocin (Compound A), Clorobiocin (Compound D), and Coumermycin A1 (Compound B) were incubated with 2 μL human CMG and 1 μL ^32P-labeled DNA forks for 30 minutes at 37 degrees Celsius. The reactions were stopped with 6× loading buffer, separated in 10% PAGE, and dried on filter paper followed by autoradiography.
(§2) For feasibility of this example, it is shown that sufficient quantities of enzymatically active hCMG can be purified using an established approach (FIGS. 9A-9D). This method of hCMG purification was previously devised by the Hurwitz lab and involves the co-expression of all 11 subunits of the hCMG using baculoviruses and insect cells, followed by a five-step chromatography-based enrichment scheme. The steps of the purification are outlined in FIG. 9A, with Westerns on isolated fractions used to assess the completeness of hCMG subunits and enzyme recovered after the final glycerol gradient step (FIG. 9B). […] Activity is measured using a classical fork-unwinding helicase assay that relies on radioactive forks being separated, and ssDNA being recognized and quantifiable in gels using PhosphorImager analyses (FIG. 9D). SV40-derived Tag helicase was also purified as a positive control, and our active hCMG is close in forkunwinding output to that of TAg. […] Given that multiple fractions produce active hCMG, this provides ample quantities of hCMG to design, calibrate, and test a workflow for hCMG chemical screening. […]

[3] = target: T2, Simian virus 40 (SV40) large-T-antigen (Tag) DNA helicase (Simian virus 40, UniProt P03070); experiment: classic fork unwinding assay; format: biochemical; settings: in vitro, FIG. 2 and titration FIG. 11
T2 construct: made in house
Source text: as §2, with “TAg. Each prep of hCMG thus obtained is giving us -5-10 fmol of hCMG per uL of glycerol gradient fraction, with fractions totaling 150-170 uL (3-4 fractions obtained with obvious hCMG; FIG. 9B). Only 1 uL hCMG is required to easily see activity using this method (FIG. 9D).” for “TAg.”

human CMG helicase [4] = system: T1, human CMG helicase; experiment: fluorescent-polarization (FP) assay measuring ADP production; format: biochemical; settings: for CMG activity inhibited: 1 mM, fluorescence-polarization assay; for inhibition of CMG helicase in fluorescent-polarization assay: FIG. 3
Source text: as §1
The components for the assay used for ATP hydrolysis measurements of the hCMG are produced by BellBrook Labs, and the kit is called the ADP2 Transcreener™ FP Assay. […] As shown in FIGS. 10A-10B, the hCMG is incubated with ATP, buffer, and non-radioactive fork substrates for a determined length of time to allow hCMG activity to occur (or not, if an inhibitor is present). This produces ADP, which is recognized by the FP assay when free ADP competes an ADP-fluor off of a patented antibody that binds ADP with high affinity. […] But this polarity is reduced in a quantitative manner depending on the presence of free ADP (produced by the hCMG here), once the ADP-fluor is released from the antibody. Noteworthy, the fluor (Alexa 633) used here is in the far-red spectrum, which reduces problems during screening that can (likely) occur when chemicals themselves emit red or green wavelengths that interfere with plate reader steps (can give false positives). The system is very sensitive to even small changes in ADP production, being able to sense 0.5-2% changes quite easily (verified in our hands, using ADP-ATP standard curves). Low substrate conversion to ADP can be detected with a Z′-factor≥0.7 at 2.5% ATP conversion. The latter is achieved with a read time of less than 5 minutes. Signal stability is greater than 24 hr, and ADP-FP reagents are stable at RT for 8 hrs and tolerate 1% DMSO. Light output is also stable in the presence of up to 10% DMSO, DMF, ethanol, acetonitrile, or methanol solvents. ATP starting concentrations can be within the range of 0.1-1000 μM, and our hCMG enzyme requires 500 μM ATP for functioning near its published Km, which has been verified applies to the hCMG preparations (not shown).
Since hCMG is purified, feasibility testing of the FP assay was performed with the hCMG (FIGS. 10A-10B). Cubes, filters, and mirrors for dual-FP analysis were obtained using PE Envision II equipment, and such items were verified as functional. A window for change in millipolarizations (AmP window) is established with reagents alone, and the amount of patented antibody needed to achieve an optimal window is pre-determined in pilot titration assays using ATP at the required 500 μM level. […] Using formulas BellBrook Labs supplies for their reagents, it was also calculated that the assay was working with a Z′-factor of >0.6 (calculations not shown). Optimal ΔmP can be as high as 80% change (EC80). Achieving this will also increase our Z′-factor to 0.8-0.9.

human CMG (hCMG) = system: T3, human CMG (hCMG); experiment: human CMG biochemical assays (primary and secondary), format not specified; settings: for inhibition of the human CMG in biochemical assays (primary and secondary): in vitro
T3 construct: made in house; host or cells: insect cells (Sf9), baculoviruses
Source text: as §1

HPV16 E1 helicase [5] = experiment: HPV16 E1 helicase inhibition; format: biochemical; settings: for inhibition of E1 helicase from HPV16: FIG. 12, construct not stated
OS tumor cells = experiment: inhibition of osteosarcoma tumor cells; format: cell-based; settings: FIGS. 14A-14F
HeLa cells = settings: supra-physiologic doses; cited from earlier work
HPV16 E1 helicase [6] = target: HPV16 E1 helicase (Human papillomavirus type 16, UniProt P03114); experiment: HPV16 E1 helicase inhibition; format: biochemical; settings: full-length
[7] = target: HPV31 E1 helicase (full-length) (Human papillomavirus 31, UniProt P17382); experiment: HPV31 E1 helicase inhibition; format: biochemical
[8] = target: HPV18 E1 helicase (helicase domain only) (Human papillomavirus type 18, UniProt P06789); experiment: HPV18 E1 helicase inhibition; format: biochemical
[9] = system: Hacat non-tumor skin cells; experiment: sensitivity of non-tumor Hacat cells; format: cell-based; settings: FIGS. 17 and 19
[10] = system: MCM assembly and activity; experiment: MCM assembly and activity in cells; format: cell-based; settings: Hacat cells and OS tumor cells (143b)
[11] = system: DNA damage / Parp cleavage in tumor cells; experiment: DNA damage and Parp cleavage in cells; format: cell-based; settings: tumor cells versus Hacat
OS tumor = OS tumor growth in mice; format: in vivo
multiple tumor types = experiment: sensitivity of multiple tumor types; format: cell-based; settings: low doses, FIG. 17

T2 sequence (P03070 whole entry): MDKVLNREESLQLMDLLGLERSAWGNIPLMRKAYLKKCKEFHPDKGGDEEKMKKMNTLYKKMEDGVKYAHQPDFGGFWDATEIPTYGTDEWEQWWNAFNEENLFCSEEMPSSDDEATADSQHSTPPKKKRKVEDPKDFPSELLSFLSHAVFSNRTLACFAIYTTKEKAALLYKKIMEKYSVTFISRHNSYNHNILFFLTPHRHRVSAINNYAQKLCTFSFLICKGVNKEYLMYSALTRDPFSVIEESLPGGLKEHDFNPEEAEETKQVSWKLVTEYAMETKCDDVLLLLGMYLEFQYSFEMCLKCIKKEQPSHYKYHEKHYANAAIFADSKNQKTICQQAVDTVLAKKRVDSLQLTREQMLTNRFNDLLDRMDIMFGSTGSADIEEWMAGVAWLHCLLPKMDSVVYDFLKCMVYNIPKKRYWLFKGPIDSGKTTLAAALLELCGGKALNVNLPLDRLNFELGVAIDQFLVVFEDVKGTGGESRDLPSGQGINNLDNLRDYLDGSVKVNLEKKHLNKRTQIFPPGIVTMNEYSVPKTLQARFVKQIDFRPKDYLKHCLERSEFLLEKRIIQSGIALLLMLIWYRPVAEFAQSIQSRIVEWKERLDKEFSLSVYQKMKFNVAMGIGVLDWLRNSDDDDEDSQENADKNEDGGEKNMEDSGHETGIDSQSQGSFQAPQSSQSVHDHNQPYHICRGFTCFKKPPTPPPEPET
Chain of HPV16 E1 helicase (Human papillomavirus type 16, UniProt P03114) (P03114 whole entry): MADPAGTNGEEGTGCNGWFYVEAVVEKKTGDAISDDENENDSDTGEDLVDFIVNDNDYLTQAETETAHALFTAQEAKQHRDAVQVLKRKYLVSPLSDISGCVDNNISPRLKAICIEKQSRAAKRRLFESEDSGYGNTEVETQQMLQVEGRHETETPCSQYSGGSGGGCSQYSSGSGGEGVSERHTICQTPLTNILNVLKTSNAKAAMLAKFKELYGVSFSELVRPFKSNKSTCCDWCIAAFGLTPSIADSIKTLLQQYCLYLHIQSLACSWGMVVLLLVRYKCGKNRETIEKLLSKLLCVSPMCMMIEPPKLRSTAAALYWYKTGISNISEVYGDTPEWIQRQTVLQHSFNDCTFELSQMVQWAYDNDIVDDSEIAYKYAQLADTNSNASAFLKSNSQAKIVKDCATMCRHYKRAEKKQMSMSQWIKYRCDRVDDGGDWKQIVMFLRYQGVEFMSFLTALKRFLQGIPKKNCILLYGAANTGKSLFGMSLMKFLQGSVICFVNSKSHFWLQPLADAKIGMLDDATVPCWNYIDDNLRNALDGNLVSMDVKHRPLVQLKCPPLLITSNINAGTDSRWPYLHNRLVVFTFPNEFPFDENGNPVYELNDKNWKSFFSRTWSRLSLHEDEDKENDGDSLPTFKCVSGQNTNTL
Chain of HPV31 E1 helicase (full-length) (P17382 whole entry, the tested form may be a part): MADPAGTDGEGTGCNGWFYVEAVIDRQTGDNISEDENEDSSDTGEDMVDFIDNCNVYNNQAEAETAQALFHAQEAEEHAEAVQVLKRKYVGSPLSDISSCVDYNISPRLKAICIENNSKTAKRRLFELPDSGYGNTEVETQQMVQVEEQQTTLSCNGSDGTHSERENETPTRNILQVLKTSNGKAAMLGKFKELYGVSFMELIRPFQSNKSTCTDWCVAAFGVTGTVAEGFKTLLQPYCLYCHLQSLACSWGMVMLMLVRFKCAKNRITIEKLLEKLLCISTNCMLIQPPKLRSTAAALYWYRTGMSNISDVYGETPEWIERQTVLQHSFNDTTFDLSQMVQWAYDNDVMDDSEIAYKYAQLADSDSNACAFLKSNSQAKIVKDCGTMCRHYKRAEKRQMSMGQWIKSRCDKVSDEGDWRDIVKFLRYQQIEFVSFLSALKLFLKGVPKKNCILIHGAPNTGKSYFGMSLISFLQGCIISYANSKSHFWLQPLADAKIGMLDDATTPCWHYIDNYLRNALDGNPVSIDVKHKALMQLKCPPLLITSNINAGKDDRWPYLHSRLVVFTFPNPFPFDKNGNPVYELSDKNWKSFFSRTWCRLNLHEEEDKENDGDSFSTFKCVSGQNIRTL
Chain of HPV18 E1 helicase (helicase domain only) (P06789 458-608 limits assumed): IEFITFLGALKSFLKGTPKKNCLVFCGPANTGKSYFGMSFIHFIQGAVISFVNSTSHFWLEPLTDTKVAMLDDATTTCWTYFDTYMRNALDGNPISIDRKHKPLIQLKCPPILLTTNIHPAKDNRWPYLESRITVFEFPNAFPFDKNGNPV

Row | Compound | inhibition of human CMG helicase in fork unwinding assay (human CMG helicase [2]) | inhibition of SV40 Tag helicase in fork unwinding assay [3] | CMG activity inhibited (human CMG helicase [4]) [%] | inhibition of CMG helicase in fluorescent-polarization assay (human CMG helicase [4]) | inhibition of the human CMG in biochemical assays (primary and secondary) (human CMG (hCMG)) | inhibition of E1 helicase from HPV16 (HPV16 E1 helicase [5]) | inhibition of OS tumor cells versus non-tumor cells (Hacat) (OS tumor cells) | inhibition of CMG activity in fork unwinding assay (human CMG helicase [2]) | also measured
1 | CO[C@@H]1[C@@H](OC(N)=O)[C@@H](O)[C@H](Oc2ccc3c(O)c(NC(=O)c4ccc(O)c(CC=C(C)C)c4)c(=O)oc3c2C)OC1(C)C [novobiocin] | not | not | 12.5 | does not | not to inhibit the human CMG at any level of exposure | can be directly inhibited | does not inhibit any cells | – | RPA loading onto DNA/chromatin (RPA32 in chromatin-bound fraction) [1]: does not inhibit RPA at all
2 | O=C(O)c1cn(C2CC2)c2cc(N3CCNCC3)c(F)cc2c1=O [ciprofloxacin] | – | – | – | – | – | – | – | – | cell growth of HeLa cells (HeLa cells): stopped cell growth
3 | CO[C@@H]1[C@@H](OC(=O)c2ccc(C)[nH]2)[C@@H](O)[C@H](Oc2ccc3c(O)c(NC(=O)c4ccc(O)c(CC=C(C)C)c4)c(=O)oc3c2Cl)OC1(C)C [clorobiocin] | – | – | 81.5 | inhibiting CMG helicase | very effectively inhibit the human CMG helicase in vitro; also recorded: effectively inhibit the human CMG | – | – | inhibit CMG activity | inhibition of human CMG (hCMG), dose dependence (human CMG (hCMG); FIG. 24): inhibits human CMG (hCMG) in a dose-dependent manner; inhibition of human CMG (hCMG) (human CMG (hCMG); direct comparison to novobiocin (500 uM), FIG. 25): inhibits human CMG (hCMG)
4 | CO[C@@H]1[C@@H](OC(=O)c2ccc(C)[nH]2)[C@@H](O)[C@H](Oc2ccc3c(O)c(NC(=O)c4c[nH]c(C(=O)Nc5c(O)c6ccc(O[C@@H]7OC(C)(C)[C@H](OC)[C@@H](OC(=O)c8ccc(C)[nH]8)[C@H]7O)c(C)c6oc5=O)c4C)c(=O)oc3c2C)OC1(C)C [coumermycin-A1, coumermycin A1] | capable of being inhibited | capable of being inhibited; also recorded: inhibiting SV40 Tag helicase | 91.7 | inhibiting CMG helicase | effective CMGi | can be directly inhibited | inhibits OS tumor cells with more specificity than non-tumor cells (Hacat) | inhibit CMG activity | toxicity [1]: some toxicity; RPA loading onto DNA/chromatin (RPA32 in chromatin-bound fraction) ([1]; listed as Coumermycin A1): inhibits RPA loading onto DNA/chromatin; RPA loading onto DNA/chromatin (RPA32 in chromatin-bound fraction) ([1]; listed as coumermycin A1): inhibiting RPA loading onto DNA/chromatin; inhibition of HPV16 E1 helicase (HPV16 E1 helicase [6]): is inhibited; inhibition of HPV16 E1 helicase (HPV16 E1 helicase [5]; helicase domain only): is inhibited; inhibition of HPV31 E1 helicase [7]: is inhibited; inhibition of HPV18 E1 helicase [8]: is inhibited; sensitivity of Hacat non-tumor cells to CMG helicase inhibition [9]: far less sensitive; inhibition of MCM assembly and activity [10]: inhibits MCM assembly and activity; DNA damage leading to Parp cleavage [11]: causes DNA damage specifically in tumor cells; OS tumor growth in mice (OS tumor; 12 day analysis): suppresses OS tumor growth in mice; OS tumor growth in mice (OS tumor; 18 day analysis): suppresses OS tumor growth in mice; sensitivity of multiple tumor types to CMG helicase inhibition (multiple tumor types): sensitive to low doses

Source: patent publication US20230348518A1 (priority 2020, published 2023)
